The text below walks through data of patent publication US20190203254A1, “CORTICAL NEURON CELL MODEL OF ALZHEIMER'S DISEASE BASED ON BMI1 DEFICIENCY, AND USES THEREOF” (9636137 Canada Inc., priority 2016, published 2019).

Structures are written as SMILES.

Data set [1] relates to shBMI1 neurons. It is filed as cell-based, human. The source says: FIG. 5 is a panel with pictures and graphs illustrating that BMI1 deficiency in neurons results in activation of MAPT, GSK3b and p53. FIG. 5A: Immunoblots for AD-related proteins in shCTL, shBMI1 and BMI1 overexpressing (BMI1 OE) neurons. Protein expression ratios were established using Ponceau staining and where expression in shCTL neurons was set as 1. FIG. 5B: Confocal analysis of F-Actin (phalloidin), amyloid (PA3), p-Tau (PHF1) and activated caspase-3 (Casp3a) in shBMI1 neurons treated with DMSO, β-secretase inhibitor (BSI), γ-secretase inhibitor (GSI) or y-secretase modulator (GSM). Quantification was established using shCTL neurons set as 1. Scale bar: 40 μm.
Human embryonic stem cells were differentiated into cortical neurons. The differentiation protocol was based on a previous study (Espuny-Camacho, I., et al., Pyramidal neurons derived from human pluripotent stem cells integrate efficiently into mouse brain circuits in vivo. Neuron 77, 440-456, (2013)). However, the Noggin agonist LDN193189 was used to reduce recombinant Noggin concentration. The H9 (WiCell™) and HUES9 (Harvard Stem Cell Institute) cell lines were dissociated using Accutase™ (Innovative Cell Technology #AT-104) and platted on growth factor reduced Matrigel™ (Corning #356231) in PeproGrow™ hES cell media (PeproTech #BM-hESC) supplemented with ROCK™ inhibitor (Y-27632; 10 μM, Cayman Chemical #10005583). Upon 70% of confluency, the media was changed to DDM supplemented with B27 (1× final), Noggin (10 ng/ml, PeproTech #120-10C) and LDN193189 (0.5 μM; Sigma #SML0559). The medium was changed every day. After 16 days of differentiation, the medium was changed to DDM/B27 and replenished every day. At day 24, neural progenitors were manually detached from the plate and mixed with lentiviral supernatant for 30 min at 37° C. Infected neural progenitors were subsequently mixed in DDM/B27 supplemented with ROCK™ inhibitor (Y-27632; 10 μM) and platted on growth factor reduced Matrigel™ coated plates or chamber slides (LabTek™ #154534). Five days after the dissociation/infection, half of the medium was changed for Neurobasal™ A media supplemented with B27 (1× final) and changed again every three days. For 3D cultures, neural progenitors at day 24 were mixed with ice-cold growth factor reduced Matrigel™ (1:20 dilution) and plated onto 8-well chamber slides. After 30 min of incubation at 37° C., fresh Neurobasal™ A/B27 were added.
Sequence-specific oligonucleotides stretch shRNA designed to target the BMI-1 ORF (accession No.: BC011652): were synthetized. Oligo#1 (nt 1061-1081) 5′-CCTAATACT TTCCAGATTGAT-3′ (SEQ ID NO: 3) and oligoScramble (nt 573-591) 5′-GGTACTTCATTGATGCCAC-3′ (SEQ ID NO: 4) were used in this study. These sequences are followed by the loop sequence (TTCAAGAGA) (SEQ ID NO: 5) and finally the reverse complements of the targeting sequences. The double stranded shRNA sequences were cloned downstream of the H1P promoter of the H1 P-UbqC-HygroEGFP plasmid using Age1, SmaI, and XbaI cloning sites. The shRNA-expressing lentiviral plasmids were cotransfected with plasmids pCMVdR8.9 and pHCMV-G into 293FT packaging cells using Lipofectamin™ (Invitrogen) according to the manufacturers instructions. Viral containing media were collected, filtered, and concentrated by ultracentrifugation. Viral titers were measured by serial dilution on 293T cells followed by microscopic analysis 48 hr later. For viral transduction, lentiviral vectors were added to dissociated cells prior to plating. […]

Another data set concerns sAD patients. The conditions noted are these: tested and abandoned in 2014 {De Strooper; cited from earlier work.
In data set [2] the test system is shBMI1 neurons. Briefly: Confocal immunofluorescence for oligomeric amyloid (NU1) and Ab42 (PA3) in shBMI1 neurons treated with BSI (FIG. 3G). In kind it is cell-based, human. The conditions noted are these: BSI vs vehicle control. The source says:
(§1) FIG. 3 is a panel with pictures and graphs illustrating that BMI1 deficiency in neurons results in p-Tau and amyloid accumulation. FIG. 3A: p-Tau (PHF1) accumulation in shBMI1 neurons but not in shCTL neurons (day 14). Scale bar: 40 mm. FIG. 3B: p-Tau (PHF1) accumulation in broken axonal segments of glutamatergic shBMl1 neurons (arrows), and co-localization of p-Tau with vGLUT1 in axonal swellings (arrows in the inset). Scale bar: 40 mm. FIG. 3C: Quantification of PHF1-positive neurons and of p-Tau foci/axon in shCTL (n=3) and shBMI1 (n=3) cultures. All values are mean±SEM. (*) P<0.05; (**) P<0.01 by Student's unpaired t-test. FIG. 3D: Confocal immunofluorescence for the apoptosis marker activated caspase-3 in shCTL and shBMl1 cultures. Scale bar: 40 mm. FIG. 3E: Quantification of activated caspase-3 positive cells in GABA+ and GABA− neuronal populations. All values are mean±SEM. (*) P<0.05 by Student's unpaired t-test. FIG. 3F: Amyloid accumulation in shBMl1 neurons as compared to shCTL neurons using the MOAB2 or PA3 antibodies. Scale bars: 40 mm. FIG. 3G: Confocal immunofluorescence for oligomeric amyloid (NU1) and Ab42 (PA3) of shCTL and shBMI1 neurons treated with beta-secretase inhibitor (BSI) or vehicle control. FIG. 3H: Intracellular and extracellular Ab42 levels in shCTL (n=3) and shBMl1 (n=3) neurons by ELISA. […]

Data set [3] relates to shBMI1 neurons. The experiment in a line: Ab42 levels by ELISA in shBMI1 neurons treated with BSI (FIG. 3H). In kind it is cell-based, human. The conditions noted are these: BSI vs vehicle control.
Description: as §1

Setting [4] is: BMI1-deficient neurons, working concentration BSI 1 μM, GSI 0.5 μM, GSM 30 μM, FIG. 5B.

As to `C[C@H](NC(=O)Cc1cc(F)cc(F)c1)C(=O)N[C@H](C(=O)OC(C)(C)C)c1ccccc1` [GSI, DAPT], the “toxicity for BMI1-knockdown human cortical neurons” value with shBMI1 neurons [1] is “toxic”. For the same compound, in the data set on shBMI1 neurons [1] (BMI1-deficient neurons, GSI 0.5 μM, FIG. 5B), the p-Tau localization result is “re-localization of p-Tau to the neuronal soma suggested tangle formation”. In the data set on shBMI1 neurons [1] (setting [4]), the “amyloid immuno-reactivity (PA3) / C99/amyloid accumulation” value is “reached saturation levels” and the “p-Tau (PHF1) immuno-reactivity / intensity” value is listed as “reduced”. For the same compound, in the data set with shBMI1 neurons [1] (BMI1-deficient neurons, working concentration GSI 0.5 μM, GSM 30 μM, FIG. 5B), the most pathological parameters result was “did not improve”. Further, the “neuro-toxicity in sAD patients” value in the data set with sAD patients is recorded as “high”.
In the case of `C[C@@H](NC(=O)c1cc(C(=O)N[C@@H](Cc2ccccc2)[C@H](O)CNC2CC2)cc(N(C)S(C)(=O)=O)c1)c1ccccc1` [BSI, BSI-IV], the “amyloid immunoreactivity (antibodies against Ab42)” value in the data set on shBMI1 neurons [2] is on record as “highly reduced”. In addition, the “amyloid (Ab42) concentration by ELISA” value in the data set with shBMI1 neurons [3] is “normalized”.
